According to ChEMBL document CHEMBL5715936, “Selective Itk inhibitors block T-cell activation and murine lung inflammation” (Biochemistry, 2004):

Experiments:
[1] = target: T1, Tyrosine-protein kinase TXK (Homo sapiens, UniProt P42681); experiment: Inhibition of Txk (unknown origin) using GST-SLP-76 as peptide substrate incubated for 10 mins in presence of [gamma-33P]ATP by scintillation counter assay
T1 sequence (P42681 whole entry): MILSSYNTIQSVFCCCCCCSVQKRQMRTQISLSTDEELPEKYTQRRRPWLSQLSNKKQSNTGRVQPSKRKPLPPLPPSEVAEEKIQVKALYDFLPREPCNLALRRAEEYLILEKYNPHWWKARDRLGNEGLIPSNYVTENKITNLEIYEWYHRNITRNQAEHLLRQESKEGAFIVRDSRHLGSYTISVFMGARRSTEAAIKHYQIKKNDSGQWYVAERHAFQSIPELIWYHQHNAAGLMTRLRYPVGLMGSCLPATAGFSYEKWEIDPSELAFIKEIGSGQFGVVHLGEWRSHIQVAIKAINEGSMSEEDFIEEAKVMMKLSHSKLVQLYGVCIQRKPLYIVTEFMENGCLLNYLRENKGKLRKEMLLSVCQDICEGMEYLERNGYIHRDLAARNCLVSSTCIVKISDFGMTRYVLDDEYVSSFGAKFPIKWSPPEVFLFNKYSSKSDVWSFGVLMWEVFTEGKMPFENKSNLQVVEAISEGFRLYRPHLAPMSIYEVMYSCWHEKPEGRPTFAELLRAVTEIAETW

[2] = target: T2, Tyrosine-protein kinase Tec (Homo sapiens, UniProt P42680); experiment: Inhibition of Tec (unknown origin) using GST-SLP-76 as peptide substrate incubated for 10 mins in presence of [gamma-33P]ATP by scintillation counter assay
T2 sequence (P42680 whole entry): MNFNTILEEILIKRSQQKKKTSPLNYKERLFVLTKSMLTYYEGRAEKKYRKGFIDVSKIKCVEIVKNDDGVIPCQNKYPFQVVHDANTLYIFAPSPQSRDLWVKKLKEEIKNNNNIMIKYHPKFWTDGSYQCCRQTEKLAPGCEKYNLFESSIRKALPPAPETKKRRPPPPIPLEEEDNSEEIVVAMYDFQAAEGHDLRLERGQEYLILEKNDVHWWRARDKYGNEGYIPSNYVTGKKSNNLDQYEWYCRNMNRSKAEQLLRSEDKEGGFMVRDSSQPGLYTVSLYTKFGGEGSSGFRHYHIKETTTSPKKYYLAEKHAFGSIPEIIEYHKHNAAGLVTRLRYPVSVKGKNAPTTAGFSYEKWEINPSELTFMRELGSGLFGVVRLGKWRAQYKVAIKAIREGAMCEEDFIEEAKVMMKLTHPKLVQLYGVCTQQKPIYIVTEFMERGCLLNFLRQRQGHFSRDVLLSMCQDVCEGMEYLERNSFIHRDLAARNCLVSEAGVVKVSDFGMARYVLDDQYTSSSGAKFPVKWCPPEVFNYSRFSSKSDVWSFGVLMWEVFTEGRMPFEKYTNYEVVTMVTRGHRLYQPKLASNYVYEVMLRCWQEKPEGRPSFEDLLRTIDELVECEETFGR

[3] = target: Tyrosine-protein kinase BTK (Homo sapiens, UniProt Q06187); experiment: Inhibition of Btk (unknown origin) using GST-SLP-76 as peptide substrate incubated for 10 mins in presence of [gamma-33P]ATP by scintillation counter assay
Tyrosine-protein kinase BTK, sequence (Q06187 whole entry): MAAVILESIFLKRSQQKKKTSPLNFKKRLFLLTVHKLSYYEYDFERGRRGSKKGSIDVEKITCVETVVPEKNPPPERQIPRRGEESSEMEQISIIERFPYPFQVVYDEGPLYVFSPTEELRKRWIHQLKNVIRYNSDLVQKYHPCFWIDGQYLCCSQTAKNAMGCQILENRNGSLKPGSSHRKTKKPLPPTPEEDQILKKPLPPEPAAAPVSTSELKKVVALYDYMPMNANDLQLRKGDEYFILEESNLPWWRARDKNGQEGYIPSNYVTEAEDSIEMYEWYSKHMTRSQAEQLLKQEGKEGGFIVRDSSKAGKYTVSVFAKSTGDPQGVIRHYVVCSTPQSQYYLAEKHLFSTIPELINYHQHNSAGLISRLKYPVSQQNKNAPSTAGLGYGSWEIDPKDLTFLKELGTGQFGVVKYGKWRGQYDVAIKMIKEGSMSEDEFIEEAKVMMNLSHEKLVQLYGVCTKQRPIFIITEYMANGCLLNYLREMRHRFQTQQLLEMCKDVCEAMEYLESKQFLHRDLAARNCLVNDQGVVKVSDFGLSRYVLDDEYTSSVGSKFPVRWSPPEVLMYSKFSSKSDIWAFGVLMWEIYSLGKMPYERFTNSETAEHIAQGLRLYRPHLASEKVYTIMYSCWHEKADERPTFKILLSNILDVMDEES

[4] = target: T3, Cytoplasmic tyrosine-protein kinase BMX (Homo sapiens, UniProt P51813); experiment: Inhibition of Bmx (unknown origin) using GST-SLP-76 as peptide substrate incubated for 10 mins in presence of [gamma-33P]ATP by scintillation counter assay
T3 sequence (P51813 whole entry): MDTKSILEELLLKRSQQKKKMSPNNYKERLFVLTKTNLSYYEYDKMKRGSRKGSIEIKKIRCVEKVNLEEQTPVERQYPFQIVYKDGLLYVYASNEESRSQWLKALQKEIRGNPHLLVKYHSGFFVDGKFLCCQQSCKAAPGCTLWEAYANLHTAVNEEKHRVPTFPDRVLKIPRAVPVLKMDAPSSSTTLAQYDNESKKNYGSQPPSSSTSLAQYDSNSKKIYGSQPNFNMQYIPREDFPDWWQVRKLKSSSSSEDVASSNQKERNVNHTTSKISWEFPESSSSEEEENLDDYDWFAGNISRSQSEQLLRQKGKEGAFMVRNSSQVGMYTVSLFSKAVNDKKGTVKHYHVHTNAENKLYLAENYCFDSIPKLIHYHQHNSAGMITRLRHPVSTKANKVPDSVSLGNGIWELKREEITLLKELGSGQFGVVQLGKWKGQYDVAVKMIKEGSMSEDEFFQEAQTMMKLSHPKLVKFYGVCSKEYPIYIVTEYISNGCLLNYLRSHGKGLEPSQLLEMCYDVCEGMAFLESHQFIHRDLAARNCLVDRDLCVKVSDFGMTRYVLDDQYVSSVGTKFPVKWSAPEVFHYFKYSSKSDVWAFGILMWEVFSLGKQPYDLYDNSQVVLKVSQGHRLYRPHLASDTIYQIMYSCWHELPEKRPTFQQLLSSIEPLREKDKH

[5] = target: Tyrosine-protein kinase Lck (Homo sapiens, UniProt P06239); experiment: Inhibition of Lck (unknown origin) using GST-SLP-76 as peptide substrate incubated for 10 mins in presence of [gamma-33P]ATP by scintillation counter assay
Tyrosine-protein kinase Lck, sequence (P06239 whole entry): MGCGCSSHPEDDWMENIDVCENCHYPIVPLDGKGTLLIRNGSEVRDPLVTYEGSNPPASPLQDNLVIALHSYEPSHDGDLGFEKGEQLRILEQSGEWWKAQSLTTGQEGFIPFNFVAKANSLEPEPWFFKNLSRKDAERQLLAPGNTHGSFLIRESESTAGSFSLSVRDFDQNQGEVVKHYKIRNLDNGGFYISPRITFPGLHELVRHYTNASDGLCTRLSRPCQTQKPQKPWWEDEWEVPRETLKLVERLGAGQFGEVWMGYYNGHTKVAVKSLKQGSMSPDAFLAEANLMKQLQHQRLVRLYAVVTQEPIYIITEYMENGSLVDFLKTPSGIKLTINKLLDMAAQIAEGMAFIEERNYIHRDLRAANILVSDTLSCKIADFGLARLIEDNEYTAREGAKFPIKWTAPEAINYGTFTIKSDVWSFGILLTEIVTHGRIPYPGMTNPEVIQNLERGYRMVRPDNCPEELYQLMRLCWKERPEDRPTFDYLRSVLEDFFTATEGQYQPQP

[6] = target: Tyrosine-protein kinase SYK (Homo sapiens, UniProt P43405); experiment: Inhibition of Syk (unknown origin) using GST-SLP-76 as peptide substrate incubated for 10 mins in presence of [gamma-33P]ATP by scintillation counter assay
[7] = target: T4, Tyrosine-protein kinase ZAP-70 (Homo sapiens, UniProt P43403); experiment: Inhibition of ZAP-70 (unknown origin) using GST-SLP-76 as peptide substrate incubated for 10 mins in presence of [gamma-33P]ATP by scintillation counter assay
T4 sequence (P43403 whole entry): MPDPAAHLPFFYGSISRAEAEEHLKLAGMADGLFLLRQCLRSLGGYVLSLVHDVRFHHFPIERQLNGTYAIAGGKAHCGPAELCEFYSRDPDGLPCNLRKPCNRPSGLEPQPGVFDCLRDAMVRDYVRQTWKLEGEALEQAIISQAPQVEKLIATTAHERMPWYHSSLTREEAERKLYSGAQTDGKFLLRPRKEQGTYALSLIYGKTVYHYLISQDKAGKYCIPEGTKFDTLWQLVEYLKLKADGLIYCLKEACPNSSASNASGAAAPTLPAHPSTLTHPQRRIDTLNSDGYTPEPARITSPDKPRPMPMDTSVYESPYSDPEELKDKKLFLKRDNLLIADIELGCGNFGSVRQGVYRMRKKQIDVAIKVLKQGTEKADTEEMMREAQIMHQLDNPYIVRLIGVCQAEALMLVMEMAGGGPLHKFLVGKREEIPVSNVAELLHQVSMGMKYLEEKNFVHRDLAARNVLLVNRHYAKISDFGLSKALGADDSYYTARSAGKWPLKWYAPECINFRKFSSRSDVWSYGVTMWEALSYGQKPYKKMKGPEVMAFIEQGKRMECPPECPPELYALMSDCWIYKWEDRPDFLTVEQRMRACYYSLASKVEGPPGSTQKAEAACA

[8] = target: Epidermal growth factor receptor (Homo sapiens, UniProt P00533); experiment: Inhibition of EGFR (unknown origin) using GST-SLP-76 as peptide substrate incubated for 10 mins in presence of [gamma-33P]ATP by scintillation counter assay
Epidermal growth factor receptor, sequence (P00533 whole entry): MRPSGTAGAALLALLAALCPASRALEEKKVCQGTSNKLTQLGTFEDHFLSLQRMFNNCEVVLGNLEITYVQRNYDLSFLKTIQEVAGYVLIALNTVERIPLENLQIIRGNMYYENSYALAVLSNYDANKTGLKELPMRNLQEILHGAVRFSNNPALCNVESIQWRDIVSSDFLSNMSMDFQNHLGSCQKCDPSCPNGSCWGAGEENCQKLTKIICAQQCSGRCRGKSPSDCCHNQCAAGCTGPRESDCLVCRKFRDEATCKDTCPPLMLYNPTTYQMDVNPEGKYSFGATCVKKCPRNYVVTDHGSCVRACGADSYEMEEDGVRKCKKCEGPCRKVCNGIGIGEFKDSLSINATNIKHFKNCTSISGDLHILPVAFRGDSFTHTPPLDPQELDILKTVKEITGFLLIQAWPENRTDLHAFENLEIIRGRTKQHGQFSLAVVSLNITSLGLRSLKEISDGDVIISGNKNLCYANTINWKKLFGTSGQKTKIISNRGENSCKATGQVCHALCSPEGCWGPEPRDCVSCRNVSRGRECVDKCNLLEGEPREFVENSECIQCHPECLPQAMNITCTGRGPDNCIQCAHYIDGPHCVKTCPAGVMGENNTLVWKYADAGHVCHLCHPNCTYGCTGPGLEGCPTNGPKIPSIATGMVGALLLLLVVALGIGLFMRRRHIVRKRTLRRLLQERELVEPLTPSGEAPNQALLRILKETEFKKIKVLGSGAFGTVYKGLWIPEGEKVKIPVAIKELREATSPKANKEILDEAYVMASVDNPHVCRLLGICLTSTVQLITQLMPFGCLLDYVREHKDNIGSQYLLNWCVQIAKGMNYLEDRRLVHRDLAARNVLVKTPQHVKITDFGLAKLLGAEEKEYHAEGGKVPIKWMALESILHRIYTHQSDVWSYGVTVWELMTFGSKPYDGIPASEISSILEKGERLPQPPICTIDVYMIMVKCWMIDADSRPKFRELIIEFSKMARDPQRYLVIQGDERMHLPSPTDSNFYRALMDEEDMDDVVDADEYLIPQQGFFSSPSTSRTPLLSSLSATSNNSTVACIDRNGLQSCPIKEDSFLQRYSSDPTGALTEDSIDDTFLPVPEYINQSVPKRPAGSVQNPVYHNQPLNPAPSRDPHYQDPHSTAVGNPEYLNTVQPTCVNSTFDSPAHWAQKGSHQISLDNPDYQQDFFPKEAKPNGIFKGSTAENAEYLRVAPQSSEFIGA

[9] = target: Cyclin-dependent kinase 2 (Homo sapiens, UniProt P24941); experiment: Inhibition of Cdk2 (unknown origin) using GST-SLP-76 as peptide substrate incubated for 10 mins in presence of [gamma-33P]ATP by scintillation counter assay
[10] = target: Mitogen-activated protein kinase 3 (Homo sapiens, UniProt P27361); experiment: Inhibition of ERK-1 (unknown origin) using GST-SLP-76 as peptide substrate incubated for 10 mins in presence of [gamma-33P]ATP by scintillation counter assay
Mitogen-activated protein kinase 3, sequence (P27361 whole entry): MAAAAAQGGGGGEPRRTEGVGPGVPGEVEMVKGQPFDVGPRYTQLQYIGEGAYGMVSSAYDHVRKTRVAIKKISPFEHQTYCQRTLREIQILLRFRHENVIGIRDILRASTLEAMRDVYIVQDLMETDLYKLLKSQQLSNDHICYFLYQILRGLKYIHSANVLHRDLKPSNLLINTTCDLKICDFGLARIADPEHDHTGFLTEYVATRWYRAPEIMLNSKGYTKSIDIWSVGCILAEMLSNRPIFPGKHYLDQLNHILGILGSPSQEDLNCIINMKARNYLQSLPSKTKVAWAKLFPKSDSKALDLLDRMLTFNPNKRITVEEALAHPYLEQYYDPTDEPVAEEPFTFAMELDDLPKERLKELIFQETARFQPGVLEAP

[11] = target: cAMP-dependent protein kinase (PKA) (Homo sapiens, UniProt P22694+P17612+P22612); experiment: Inhibition of PKA (unknown origin) using GST-SLP-76 as peptide substrate incubated for 10 mins in presence of [gamma-33P]ATP by scintillation counter assay; type: protein assay
[12] = target: Protein kinase C (PKC); experiment: Inhibition of PKC (unknown origin) using GST-SLP-76 as peptide substrate incubated for 10 mins in presence of [gamma-33P]ATP by scintillation counter assay; type: protein assay, Homo sapiens

- IC50 [1]: > 50 µM
- IC50 [2]: > 50 µM
- IC50 [3]: 49 µM
- IC50 [4]: 20 µM
- IC50 [5]: > 25 µM
- IC50 [6]: > 50 µM
- IC50 [7]: > 50 µM
- IC50 [8]: > 50 µM
- IC50 [9]: 27 µM
- IC50 [10]: > 50 µM
- IC50 [11]: > 50 µM
- IC50 [12]: > 50 µM
Structure (SMILES): CC(=O)N1CCN(C(=O)c2cccc(CSc3cnc(NC(=O)c4ccc(N(C)C)cc4)s3)c2)CC1
